Where a name gives a salt, the structure may show the parent alone.
Each molecule was assayed against T1, Sirt6 (Homo sapiens, UniProt Q8N6T7) (assay: Measurement of Sirt6 Activity (CycLex Sirt6 Deacetylase Fluorometric Assay Kit)). Conditions: compound at 10 μM; fluorescence relative to the group without compound treatment (positive control group).
T1 construct: purchased CycLex CY-1156V2
Format: biochemical
Procedure: LC-MS (ESI, m/z)=430.1 (M+H^+) Experimental Example 1: Measurement of Sirt6 Activity Compounds having Sirt6 activity were selected using a CycLex Sirt6 Deacetylase Fluorometric Assay Kit (cat. CY-1156V2) manufactured by CycLex.
When a fluorescent-attached acetylated lysine substrate is treated with Sirt6 enzyme, Sirt6 deacetylates the acetylated lysine of the substrate and lysylendopeptidase cleaves the C-terminal peptide bond connected to the lysine, by which fluorescence is emitted. The activity of a compound is calculated by observing the intensity of fluorescence when the compound is treated along with Sirt6 enzyme. When treating the compound, the compound aids in the activity of Sirt6 enzyme, so as to result in stronger fluorescence. Therefore, by calculating the ratio of the stronger fluorescence relative to the fluorescence emitted from the group without compound treatment (i.e., positive control group), relative activity can be calculated.
Activity evaluation was performed according to the following procedure.
The compound whose activity is to be evaluated was prepared by diluting in phosphate-buffered saline (PBS) to 10 times of the desired concentration (e.g., when measuring Sirt6 assay activity at 10 μM, the compound is prepared at a concentration of 100 μM in PBS). 1 μL of a 1 Ox Sirt6 assay buffer, 0.8 μL of 50× fluoro-substrate peptide, 1 μL of nicotinamide adenine dinucleotide (NAD), 1 μL of a developer and 4.2 μL of H2O were mixed to prepare mixtures equal to the number of samples, and 8 μL was dispensed into each Black 384 well. An additional 1 μL of PBS was added to each of a “no enzyme group” and a positive control group, and 1 μL of the compound diluted in PBS was added to an activity evaluation group. Recombinant Sirt6 was 1:8 diluted in a 1×Sirt6 assay buffer, and 1 μL thereof was added to each of the positive control group and the activity evaluation group. 1 μL of the 1×Sirt6 assay buffer was added to the “no enzyme group.” After reacting at room temperature for one hour, results were measured with a fluorescence spectrometer (excitation: 490±10 nm, emission: 530±10 nm) to confirm the presence or absence of Sirt6 activity and measure the intensity of the activity.

T1 sequence (Q8N6T7 whole entry): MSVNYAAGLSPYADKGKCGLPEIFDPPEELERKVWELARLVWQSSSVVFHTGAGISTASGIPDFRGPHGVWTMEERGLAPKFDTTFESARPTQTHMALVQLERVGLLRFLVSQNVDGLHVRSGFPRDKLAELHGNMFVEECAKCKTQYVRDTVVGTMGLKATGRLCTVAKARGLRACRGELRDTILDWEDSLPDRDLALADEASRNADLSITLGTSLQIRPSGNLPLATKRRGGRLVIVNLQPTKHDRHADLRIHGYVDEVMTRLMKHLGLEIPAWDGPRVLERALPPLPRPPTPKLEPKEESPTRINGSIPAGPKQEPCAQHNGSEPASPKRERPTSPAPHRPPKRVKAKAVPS

| Molecule | Sirt6 Activity (% activity, 10 μM) |
| --- | --- |
| N-(3-(4-Oxo-3-(tetrahydro-2H-pyran-4-yl)-3,4-dihydrophthalazin-1-yl)phenyl)ethanesulfonamide [Example 151] | 145.64 % activity |
| NS(=O)(=O)c1cccc(-c2nn(-c3ccc(F)cc3F)c(=O)c3ccccc23)c1 [Example 126, 3-(3-(2,4-Difluorophenyl)-4-oxo-3,4-dihydrophthalazin-1-yl)benzenesulfonamide] | 185 % activity |
| Nc1cccc(-c2nn(-c3ccc(C(F)(F)F)cc3)c(=O)c3ccccc23)c1 [Example 2, 4-(3-Aminophenyl)-2-(4-(trifluoromethyl)phenyl)phthalazin-1(2H)-one] | 88 % activity |
| CCS(=O)(=O)Nc1cccc(-c2nn(-c3ccc(F)cc3F)c(=O)c3ccccc23)c1 [Example 25, N-(3-(3-(2,4-Difluorophenyl)-4-oxo-3,4-dihydrophthalazin-1-yl)phenyl)ethanesulfonamide] | 147 % activity |
| CCS(=O)(=O)Nc1cccc(-c2nn(-c3ccc(F)cc3)c(=O)c3ccccc23)c1 [Example 11, N-(3-(3-(4-Fluorophenyl)-4-oxo-3,4-dihydrophthalazin-1-yl)phenyl)ethanesulfonamide] | 162 % activity |
| O=C(NO)c1cccc(-c2nn(-c3ccc(F)cc3)c(=O)c3ccccc23)c1 [Example 83, 3-(3-(4-Fluorophenyl)-4-oxo-3,4-dihydrophthalazin-1-yl)-N-hydroxybenzamide] | 162 % activity |
| CC(C)(C)/[N+]([O-])=C/c1ccccc1-c1nn(-c2ccc(F)cc2)c(=O)c2ccccc12 [Example 42, (Z)—N-tert-Butyl-1-(2-(3-(4-fluorophenyl)-4-oxo-3,4-dihydrophthalazin-1-yl)phenyl)methanimine Oxide] | 161 % activity |
| CCCS(=O)(=O)N(C)c1cccc(-c2nn(-c3ccc(F)cc3)c(=O)c3ccccc23)c1 [Example 72, N-(3-(3-(4-Fluorophenyl)-4-oxo-3,4-dihydrophthalazin-1-yl)phenyl)-N-methylpropan-1-sulfonamide] | 115 % activity |
| Cl.N[C@@H]1CCCCN(c2nn(-c3ccc(F)cc3)c(=O)c3ccccc23)C1 [Example 162, (R)-4-(3-Aminoazepan-1-yl)-2-(4-fluorophenyl)phthalazin-1(2H)-one-hydrochloride] | 205.5 % activity |
| CN(C)S(=O)(=O)Nc1cccc(-c2nn(-c3ccc(F)cc3)c(=O)c3ccccc23)c1 [Example 12, N-(3-(3-(4-Fluorophenyl)-4-oxo-3,4-dihydrophthalazin-1-yl)phenyl)dimethylsulfamoylamide] | 189 % activity |
| C/[N+]([O-])=C/c1cccc(-c2nn(-c3c(F)cccc3F)c(=O)c3ccccc23)c1 [Example 102, (Z)-1-(3-(3-(2,6-Difluorophenyl)-4-oxo-3,4-dihydrophthalazin-1-yl)phenyl)-N-methylmethanimine Oxide] | 206 % activity |
| CCS(=O)(=O)N1CC=C(c2nn(-c3ccc(F)cc3F)c(=O)c3ccccc23)CC1 [Example 218, 2-(2,4-Difluorophenyl)-4-(1-(ethylsulfonyl)-1,2,3,6-tetrahydropyridin-4-yl)phthalazin-1(2H)-one] | 176.50 % activity |
| CC(C)(C)/[N+]([O-])=C/c1ccc(-c2nn(-c3ccc(F)cc3)c(=O)c3ccccc23)s1 [Example 47, (Z)—N-tert-Butyl-1-(5-(3-(4-fluorophenyl)-4-oxo-3,4-dihydrophthalazin-1-yl)thiophen-2-yl)methanimine Oxide] | 132 % activity |
| CN1CCN(c2nn(-c3ccc(F)cc3F)c(=O)c3ccccc23)CC1C(C)(C)C(=O)O (stereo not shown) [Example 220, 2-(4-(3-(2,4-Difluorophenyl)-4-oxo-3,4-dihydrophthalazin-1-yl)-1-methylpiperazin-2-yl)-2-methylpropanoic Acid] | 125.80 % activity |
| Cl.NC1CCCCN(c2nn(-c3ccc(F)cc3F)c(=O)c3ccccc23)C1 (stereo not shown) [Example 167, 4-(3-Aminoazepan-1-yl)-2-(2,4-difluorophenyl)phthalazin-1(2H)-one-hydrochloride] | 249.4 % activity |
| CCS(=O)(=O)N[C@@H]1CCCN(c2nn(-c3ccc(F)cc3)c(=O)c3ccccc23)C1 [Example 139, (R)—N-(1-(3-(4-Fluorophenyl)-4-oxo-3,4-dihydrophthalazin-1-yl)piperidin-3-yl)ethanesulfonamide] | 130.07 % activity |
| CCS(=O)(=O)Nc1ccc(-c2nn(-c3ccccc3)c(=O)c3ccccc23)cc1 [Example 8, N-(4-(4-Oxo-3-phenyl-3,4-dihydrophthalazin-1-yl)phenyl)ethanesulfonamide] | 100 % activity |
| O=c1c2ccccc2c(N2CCCNCC2)nn1-c1ccc(F)cc1F [Example 184, 4-(1,4-Diazepan-1-yl)-2-(2,4-difluorophenyl)phthalazin-1(2H)-one-hydrochloride] | 176.80 % activity |
| CC(C)/[N+]([O-])=C/c1ccc(F)c(-c2nn(-c3ccc(F)cc3)c(=O)c3ccccc23)c1 [Example 56, (Z)-1-(4-Fluoro-3-(3-(4-fluorophenyl)-4-oxo-3,4-dihydrophthalazin-1-yl)phenyl)-N-isopropylmethanimine Oxide] | 115 % activity |
| CC(C)(C(N)=O)c1cccc(-c2nn(-c3ccc(F)cc3F)c(=O)c3ccccc23)c1 [Example 188, 2-(3-(3-(2,4-Difluorophenyl)-4-oxo-3,4-dihydrophthalazin-1-yl)phenyl)-2-methylpropanamide] | 358.40 % activity |
| O=c1c2ccccc2c(-c2ccc[n+]([O-])c2)nn1-c1ccc(F)cc1 [Example 114, 3-(3-(4-Fluorophenyl)-4-oxo-3,4-dihydrophthalazin-1-yl)pyridine 1-oxide] | 226 % activity |
| Cl.N[C@H]1CCCCN(c2nn(-c3ccc(F)cc3F)c(=O)c3ccccc23)C1 [Example 157, (S)-4-(3-Aminoazepan-1-yl)-2-(2,4-difluorophenyl)phthalazin-1(2H)-one-hydrochloride] | 244.1 % activity |
| O=C(O)Cc1cccc(-c2nn(-c3ccc(F)cc3F)c(=O)c3ccccc23)c1 [Example 199, 2-(3-(3-(2,4-Difluorophenyl)-4-oxo-3,4-dihydrophthalazin-1-yl)phenyl)acetic Acid] | 149.41 % activity |
| O=c1c2ccccc2c(-c2cccc(-c3nnn[nH]3)c2)nn1-c1ccc(F)cc1 [Example 81, 4-(3-(1H-Tetrazol-5-yl)phenyl)-2-(4-fluorophenyl)phthalazin-1(2H)-one] | 115 % activity |
| CCS(=O)(=O)Nc1cccc(-c2nn(-c3cnn(C)c3)c(=O)c3ccccc23)c1 [Example 133, N-(3-(3-(1-Methyl-1H-pyrazol-4-yl)-4-oxo-3,4-dihydrophthalazin-1-yl)phenyl)ethanesulfonamide] | 118.8 % activity |
